{"source": "patent US9596851B1", "about": "“Method for controlling growth of red palm weevil” (priority 2015, dated 2017)", "key": {"Red Palm Weevil larvae [1]": {"test_system": "Red Palm Weevil larvae", "assay": "Growth indices bioassay (nutritional indices ECI, ECD, AD) on coumarin-incorporated artificial diet", "assay_type": "in vivo, Rhynchophorus ferrugineus", "details": "72 hours post exposure; for inhibition at 1000 ppm: Rhynchophorus ferrugineus, feed or water, 72 h, 1000 ppm in diet", "description": "Impact of different doses of coumarin on the growth and development of different larval instars of red palm weevil was evaluated by growth indices bioassays. All the solutions of coumarin were prepared by dissolving in 0.05% acetone. The ingredients of artificial diet (wheat flour @ 45 g/L, corn flour @ 45 g/L, Yeast @ 45 g/L, Agar @ 17.5 g/L, Sorbic acid @ 1.6 g/L, L-Ascorbic Acid @ 4 g/L, Pharmaton (2 capsules/L), Tetracycline @ 500 mg/L) were dissolved in 1 L of coumarin solution with strength 200 mg/L, 400 mg/L, 600 mg/L, 800 mg/L and 1000 mg/L of coumarin, separately. Newly moulted 4th, 8th and 12th instar Red Palm Weevil larvae were allowed to feed on each diet separately in perforated plastic bowls. In case of control treatment, 0.05% acetone was used to prepare the diet. Twenty larvae were used to compile one replicate. Five replicates were prepared likewise. The fresh diet was daily provided to the larvae. The experimental units were incubated at 30±1° C. and 75%±5% relative humidity. Initial and final weight of the larvae and the frass produced during 72 hours post exposure was also measured. These measurements were used to determine the impact of coumarin on the nutritional indices including: Approximate Digestibility [AD=([…]−frass weight)/food ingested×100], Efficacy of conversion of digested food [ECD=weight gained by the larva/(food ingested−dry weight of frass)×100] and Efficacy of conversion of ingested food [ECI=100×dry weight gained by the larva/dry weight of food consumed].\nFor growth indices, measurements were made 72 hours post-exposure on dry matter basis. Larvae, frass and remaining food after 72 h were dried at 60° C. until constant weight. Growth indices data were analyzed by one way analysis of variance (ANOVA). Means were compared by Fisher's Least Significant Difference (LSD) test."}, "Red Palm Weevil larvae [2]": {"test_system": "Red Palm Weevil larvae", "assay": "Insecticidal potential of coumarin at different doses incorporated in artificial diet (mortality bioassay)", "assay_type": "in vivo, Rhynchophorus ferrugineus", "details": "for EC50 / LD50: artificial diet, after three days", "description": "Insecticidal potential of coumarin at different dose concentrations (200 ppm, 400 ppm, 600 ppm, 800 ppm and 1000 ppm) was evaluated against 4th, 8th and 12th instar Red Palm Weevil larvae. The above mentioned concentrations of coumarin were prepared by dissolving coumarin in 0.05% acetone. The ingredients of artificial diet (wheat flour @ 45 g/L, corn flour @ 45 g/L, Yeast @ 45 g/L, Agar @ 17.5 g/L, Sorbic acid @ 1.6 g/L, L-Ascorbic Acid @ 4 g/L, Pharmaton (2 capsules/L), Tetracycline @ 500 mg/L) were dissolved in 1 L of coumarin solution with strength 200 mg/L, 400 mg/L, 600 mg/L, 800 mg/L and 1000 mg/L, separately. The newly moulted 4th, 8th and 12th instar Red Palm Weevil larvae were allowed to feed on each diet separately in perforated plastic bowls. In case of control treatment, 0.05% acetone was used to prepare the diet. Twenty larvae were used to compile one replicate. Five replicates were prepared likewise. The fresh diet was provided daily to the larvae. The experimental units were incubated at 30±1° C. and 75%±5% relative humidity. Abbot formula was used to correct the control mortality (Abbott, 1925). Efficacy of coumarin was determined at each dose to calculate LD50 values."}, "[3]": {"details": "4th, 8th and 12th instar larvae, 200-1000 ppm in diet"}}, "note": "Where two headings read alike, the source gives them in different places.", "data": [{"smiles": "O=c1ccc2ccccc2o1", "note": "[coumarin]", "values": [{"measurement": "approximate digestibility (AD)", "setting": "Red Palm Weevil larvae [1]; [3]", "result": "significantly increased"}, {"measurement": "inhibition at 1000 ppm", "setting": "Red Palm Weevil larvae [1]; 4th instar larvae, read-out: ECD (efficacy of conversion of digested food) inhibition compared to control", "result": 96.9, "unit": "%"}, {"measurement": "inhibition at 1000 ppm", "setting": "Red Palm Weevil larvae [1]; 4th instar larvae, read-out: ECI (efficacy of conversion of ingested food) inhibition compared to control", "result": 95.6, "unit": "%"}, {"measurement": "inhibition at 1000 ppm", "setting": "Red Palm Weevil larvae [1]; 8th instar larvae, read-out: ECD (efficacy of conversion of digested food) inhibition compared to control", "result": 89, "unit": "%"}, {"measurement": "inhibition at 1000 ppm", "setting": "Red Palm Weevil larvae [1]; 8th instar larvae, read-out: ECI (efficacy of conversion of ingested food) inhibition compared to control", "result": 84, "unit": "%"}, {"measurement": "inhibition at 1000 ppm", "setting": "Red Palm Weevil larvae [1]; 12th instar larvae, read-out: ECD (efficacy of conversion of digested food) inhibition compared to control", "result": 78.5, "unit": "%"}, {"measurement": "inhibition at 1000 ppm", "setting": "Red Palm Weevil larvae [1]; 12th instar larvae, read-out: ECI (efficacy of conversion of ingested food) inhibition compared to control", "result": 69.4, "unit": "%"}, {"measurement": "EC50", "setting": "Red Palm Weevil larvae [2]; 4th instar larvae", "result": 293.77, "unit": "ppm"}, {"measurement": "LD50", "setting": "Red Palm Weevil larvae [2]; 4th instar larvae", "result": 404.55, "unit": "ppm"}, {"measurement": "mortality versus dose", "setting": "Red Palm Weevil larvae [2]; [3]", "result": "directly proportional"}, {"measurement": "EC50", "setting": "Red Palm Weevil larvae [2]; 8th instar larvae", "result": 438.32, "unit": "ppm"}, {"measurement": "LD50", "setting": "Red Palm Weevil larvae [2]; 8th instar larvae", "result": 509.37, "unit": "ppm"}, {"measurement": "EC50", "setting": "Red Palm Weevil larvae [2]; 12th instar larvae", "result": 559.77, "unit": "ppm"}, {"measurement": "LD50", "setting": "Red Palm Weevil larvae [2]; 12th instar larvae", "result": 708.24, "unit": "ppm"}]}]}
